For data set [1], the system named is H9c2. In words: Induction of NO release ratio in rat H9c2 cells under hypoxia condition by Griess reagent based microplate reader analysis relative to control. Type of data set: functional. On the set-up: concentration or dose not given beside the values. (Nitrite, measured by Griess reagent, commonly stands in for NO production.)
Data set [2] has as its target T1, Prostaglandin G/H synthase 2 (Homo sapiens, UniProt P35354).
T1 sequence (P35354 whole entry): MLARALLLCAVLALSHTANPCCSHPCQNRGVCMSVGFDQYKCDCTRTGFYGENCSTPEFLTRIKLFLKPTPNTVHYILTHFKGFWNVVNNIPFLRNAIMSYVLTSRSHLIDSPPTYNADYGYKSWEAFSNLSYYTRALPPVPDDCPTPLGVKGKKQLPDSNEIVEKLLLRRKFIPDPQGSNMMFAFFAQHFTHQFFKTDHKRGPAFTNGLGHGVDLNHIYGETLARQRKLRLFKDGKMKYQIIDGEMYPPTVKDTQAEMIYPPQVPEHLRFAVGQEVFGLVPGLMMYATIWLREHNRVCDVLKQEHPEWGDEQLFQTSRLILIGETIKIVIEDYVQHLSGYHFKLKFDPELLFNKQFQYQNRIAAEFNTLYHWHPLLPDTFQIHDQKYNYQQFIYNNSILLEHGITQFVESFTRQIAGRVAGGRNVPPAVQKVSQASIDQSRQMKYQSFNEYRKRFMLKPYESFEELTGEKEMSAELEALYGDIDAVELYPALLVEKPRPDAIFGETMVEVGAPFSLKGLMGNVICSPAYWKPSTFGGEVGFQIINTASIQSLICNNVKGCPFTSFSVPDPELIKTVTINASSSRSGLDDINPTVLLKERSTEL
In words: Inhibition of COX-2 (unknown origin).

For data set [3], the system named is H9c2. In words: Induction of NO release in rat H9c2 cells under hypoxia condition at 1 to 50 uM incubated for 4 hrs by Griess reagent based microplate reader analysis. Type of data set: functional, cell-based. The following applies: dose 1-50 µM.
The nature of data set [4]: Induction of H2S release by absorbance based analysis. Type of data set: functional.
Data set [5] deals with H9c2. In words: Upregulation of VEFG protein expression level in rat H9c2 cells at 1 uM under hypoxia by Western blotting analysis. Type of data set: functional, cell-based. On the technique in general: A western blot detects proteins with antibodies after separation by electrophoresis.
In data set [6] the test system is H9c2. In words: Downregulation of ACE protein expression in rat H9c2 cells at 1 uM under hypoxia by Western blotting analysis. Type of data set: functional, cell-based.
Data set [7] relates to H9c2. Briefly: Upregulation of HO-1 expression in rat H9c2 cells at 1 uM under hypoxia by Western blotting analysis. Type of data set: functional, cell-based.
Data set [8] in a line: Toxicity in male Wistar rat assessed as growth curve at 10 mg/kg administered once a day for 3 days and measured after 6 days. Type of data set: organism-based. The following applies: in vivo, 72 h, time 3 day.
Data set [9] has as its system Rattus norvegicus. Briefly: Cardioprotective activity against LPS and talc powder induced pericarditis male Wistar rat assessed as improvement in cardiac swelling at 10 mg/kg administered for 3 days. Particulars: time 3.0 day. Type of data set: functional, organism-based.
Data set [10] deals with Rattus norvegicus. Briefly: Cardioprotective activity against LPS and talc powder induced pericarditis male Wistar rat assessed as improvement in pericardium thickening at 10 mg/kg administered for 3 days. Type of data set: functional, organism-based. Particulars: time 3.0 day.

Activity calls are given as the source filed them. The rule behind the calls is not given here.

The values below come from ChEMBL document CHEMBL6096641, “Discovery of the synergy between sulindac and NO expands the application of NSAIDs in cardiac complications” (Bioorg Med Chem, 2024).

With `COc1ccc2c(c1)c(CC(=O)Oc1ccc(N(C)N=O)cc1)c(C)n2C(=O)c1ccc(Cl)cc1`, the Activity in the data set on H9c2 [1] worked out at 32.85%.

A word on the IC50: it is the concentration needed to halve the response being measured. Regarding `CC(C)Cc1ccc(C(C)C(=O)Oc2ccc(N(C)N=O)cc2)cc1` (configuration not stated), the Activity in the data set on H9c2 [1] was 12.11%. It took 451 µM to reach half-maximal inhibition in data set [2] (IC50).

Regarding `CC(C(=O)Oc1ccc(N(C)N=O)cc1)c1cccc(Oc2ccccc2)c1` (configuration not stated), the Activity with H9c2 [1] is recorded as 1.12%.

For `CC(C(=O)Oc1ccc(N(C)N=O)cc1)c1cccc(C(=O)c2ccccc2)c1` (configuration not stated), the Activity with H9c2 [1] is reported as 2.23%.

Consider `Cc1cccc(Nc2ccccc2C(=O)Oc2ccc(N(C)N=O)cc2)c1C`, for which, in the data set with H9c2 [1], the Activity is on record as 34.55%.

`CCc1cccc2c3c([nH]c12)C(CC)(CC(=O)Oc1ccc(N(C)N=O)cc1)OCC3` (configuration not stated): in the data set on H9c2 [1], the Activity is listed as 1.01%.

On to `CC1=C(CC(=O)Oc2ccc(N(C)N=O)cc2)c2cc(F)ccc2/C1=C\c1ccc([S+](C)[O-])cc1` (configuration not stated), for which the Activity with H9c2 [1] stood at 32.56%.

`COc1ccc2cc(C(C)C(=O)Oc3ccc(N(C)N=O)cc3)ccc2c1` (single isomer, unassigned): the Activity in the data set with H9c2 [1] stood at 44.95%.

As for `CC1=C(CC(=O)O)c2cc(F)ccc2/C1=C\c1ccc([S+](C)[O-])cc1` (configuration not stated) [SULINDAC], the outcome in the data set with H9c2 [3] and in the data set on H9c2 [5] was inactive. Moreover, the Activity in [4] is 29.5 µg/L; in [8], “Non-toxic”. For the same molecule, the outcome in the data set on H9c2 [6], in the data set with H9c2 [7], with Rattus norvegicus [9] and in the data set on Rattus norvegicus [10] was Active.
